Experimental data reported in BindingDB's records for doi:10.1021/jm800940u (Schering-Plough Research Institute, 2009).

What follows are compounds tested against Genome polyprotein (Hepatitis C virus genotype 1a (isolate H77), UniProt P27958) (assay: Continuous Spectrophotometric Assay). Details: not given.
Description: Proteolytic cleavage of the ester linkage between the Nva (L-norvaline) and the chromophore (PAP) was monitored for change in absorbance at 370 nm. Initial velocities were determined using linear regression and kinetic constants were obtained by fitting the data to the Michaelis-Menten equation.

Genome polyprotein, sequence (P27958 1027-1657 limits assumed): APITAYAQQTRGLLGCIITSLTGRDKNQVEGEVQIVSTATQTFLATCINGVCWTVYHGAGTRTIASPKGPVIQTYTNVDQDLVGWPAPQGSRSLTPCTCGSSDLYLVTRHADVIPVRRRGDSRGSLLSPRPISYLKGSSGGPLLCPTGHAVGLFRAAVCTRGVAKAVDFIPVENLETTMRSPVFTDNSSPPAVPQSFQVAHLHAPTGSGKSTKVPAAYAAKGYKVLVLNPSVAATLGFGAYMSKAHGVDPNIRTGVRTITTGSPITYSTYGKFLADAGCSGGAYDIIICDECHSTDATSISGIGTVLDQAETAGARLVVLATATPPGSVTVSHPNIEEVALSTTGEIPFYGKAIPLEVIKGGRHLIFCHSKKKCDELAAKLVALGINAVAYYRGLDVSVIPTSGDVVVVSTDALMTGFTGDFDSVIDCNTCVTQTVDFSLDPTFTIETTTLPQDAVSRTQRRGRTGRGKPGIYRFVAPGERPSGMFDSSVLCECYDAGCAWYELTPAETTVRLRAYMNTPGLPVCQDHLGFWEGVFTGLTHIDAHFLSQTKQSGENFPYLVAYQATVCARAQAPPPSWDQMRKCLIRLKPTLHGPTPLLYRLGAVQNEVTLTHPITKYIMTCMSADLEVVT

Row | Ki | SMILES
1 | 3 nM | C=CCNC(=O)C(=O)[C@@H]1CCCCCCCCC[C@H](NC(=O)N[C@H](CN(C)S(C)(=O)=O)C(C)(C)C)C(=O)N2C[C@H]3[C@@H]([C@H]2C(=O)N1)C3(C)C [2-[(3S,13S,16S,17R,19S)-3-({[(2S)-1-[methane(methyl)sulfonamido]-3,3-dimethylbutan-2-yl]carbamoyl}amino)-18,18-dimethyl-2,15-dioxo-1,14-diazatricyclo[14.4.0.0^{17,19}]icosan-13-yl]-2-oxo-N-(prop-2-en-1-yl)acetamide]
2 | 4 nM | C=CCNC(=O)C(=O)[C@@H]1CCCCCCCCC[C@H](NC(=O)N[C@H](CN2C(=O)CN(C)CC2=O)C(C)(C)C)C(=O)N2C[C@H]3[C@@H]([C@H]2C(=O)N1)C3(C)C [2-[(3S,13S,16S,17R,19S)-3-({[(2S)-3,3-dimethyl-1-(4-methyl-2,6-dioxopiperazin-1-yl)butan-2-yl]carbamoyl}amino)-18,18-dimethyl-2,15-dioxo-1,14-diazatricyclo[14.4.0.0^{17,19}]icosan-13-yl]-2-oxo-N-(prop-2-en-1-yl)acetamide]
3 | 6 nM | C=CCNC(=O)C(=O)[C@@H]1CCCCCCCCC[C@H](NC(=O)N[C@H](C(=O)C2CC2)C2CCCCC2)C(=O)N2C[C@H]3[C@@H]([C@H]2C(=O)N1)C3(C)C [2-[(3S,13S,16S,17R,19S)-3-({[(1S)-1-cyclohexyl-2-cyclopropyl-2-oxoethyl]carbamoyl}amino)-18,18-dimethyl-2,15-dioxo-1,14-diazatricyclo[14.4.0.0^{17,19}]icosan-13-yl]-2-oxo-N-(prop-2-en-1-yl)acetamide]
4 | 2 nM | C=CCNC(=O)C(=O)[C@@H]1CCCCCCCCC[C@H](NC(=O)N[C@H](CN2CCC(C)(C)CC2=O)C(C)(C)C)C(=O)N2C[C@H]3[C@@H]([C@H]2C(=O)N1)C3(C)C [2-[(3S,13S,16S,17R,19S)-3-({[(2S)-1-(4,4-dimethyl-2-oxopiperidin-1-yl)-3,3-dimethylbutan-2-yl]carbamoyl}amino)-18,18-dimethyl-2,15-dioxo-1,14-diazatricyclo[14.4.0.0^{17,19}]icosan-13-yl]-2-oxo-N-(prop-2-en-1-yl)acetamide]
5 | 3 nM | C=CCNC(=O)C(=O)[C@@H]1CCCCCCCCC[C@H](NC(=O)N[C@H](CN2C(=O)C3CCC(C3)C2=O)C(C)(C)C)C(=O)N2C[C@H]3[C@@H]([C@H]2C(=O)N1)C3(C)C [2-[(3S,13S,16S,17R,19S)-3-({[(2S)-1-{2,4-dioxo-3-azabicyclo[3.2.1]octan-3-yl}-3,3-dimethylbutan-2-yl]carbamoyl}amino)-18,18-dimethyl-2,15-dioxo-1,14-diazatricyclo[14.4.0.0^{17,19}]icosan-13-yl]-2-oxo-N-(prop-2-en-1-yl)acetamide]
6 | 7 nM | C=CCNC(=O)C(=O)[C@@H]1CCCCCCCCC[C@H](NC(=O)N[C@H](CN2Cc3sccc3S2(=O)=O)C(C)(C)C)C(=O)N2C[C@H]3[C@@H]([C@H]2C(=O)N1)C3(C)C [2-[(3S,13S,16S,17R,19S)-3-({[(2S)-1-(1,1-dioxo-2H,3H-1,4,2-thieno[2,3-d][1,2]thiazol-2-yl)-3,3-dimethylbutan-2-yl]carbamoyl}amino)-18,18-dimethyl-2,15-dioxo-1,14-diazatricyclo[14.4.0.0^{17,19}]icosan-13-yl]-2-oxo-N-(prop-2-en-1-yl)acetamide]
7 | 7 nM | C=CCNC(=O)C(=O)[C@@H]1CCCCCCCCC[C@H](NC(=O)N[C@H](CN(C)S(=O)(=O)c2ccccn2)C(C)(C)C)C(=O)N2C[C@H]3[C@@H]([C@H]2C(=O)N1)C3(C)C [2-[(3S,13S,16S,17R,19S)-3-({[(2S)-3,3-dimethyl-1-[methyl(pyridine-2-)sulfonamido]butan-2-yl]carbamoyl}amino)-18,18-dimethyl-2,15-dioxo-1,14-diazatricyclo[14.4.0.0^{17,19}]icosan-13-yl]-2-oxo-N-(prop-2-en-1-yl)acetamide]

Same assay, conditions: pH 6.5; 30 °C

Row | Ki | SMILES
8 | 21 nM | CN(C[C@@H](NC(=O)N[C@H]1CCCCCCCCC[C@@H](C(=O)C(=O)NCC2CC2)NC(=O)[C@@H]2[C@@H]3[C@H](CN2C1=O)C3(C)C)C(C)(C)C)S(=O)(=O)c1cccs1 [N-(cyclopropylmethyl)-2-[(3S,13S,16S,17R,19S)-3-({[(2S)-3,3-dimethyl-1-[methyl(thiophene-2-)sulfonamido]butan-2-yl]carbamoyl}amino)-18,18-dimethyl-2,15-dioxo-1,14-diazatricyclo[14.4.0.0^{17,19}]icosan-13-yl]-2-oxoacetamide]
9 | 37 nM | CC(C)(C)OC(=O)[C@@H](NC(=O)N[C@H]1CCCCCCCCCC[C@@H](C(=O)C(N)=O)NC(=O)[C@@H]2[C@@H]3[C@H](CN2C1=O)C3(C)C)C(C)(C)C [tert-butyl (2S)-2-({[(3S,14S,17S,18R,20S)-14-(carbamoylcarbonyl)-19,19-dimethyl-2,16-dioxo-1,15-diazatricyclo[15.4.0.0^{18,20}]henicosan-3-yl]carbamoyl}amino)-3,3-dimethylbutanoate]
10 | 5 nM | C=CCNC(=O)C(=O)[C@@H]1CCCCCCCCC[C@H](NC(=O)N[C@H](CN(C)S(=O)(=O)c2cccs2)C(C)(C)C)C(=O)N2C[C@H]3[C@@H]([C@H]2C(=O)N1)C3(C)C [2-[(3S,13S,16S,17R,19S)-3-({[(2S)-3,3-dimethyl-1-[methyl(thiophene-2-)sulfonamido]butan-2-yl]carbamoyl}amino)-18,18-dimethyl-2,15-dioxo-1,14-diazatricyclo[14.4.0.0^{17,19}]icosan-13-yl]-2-oxo-N-(prop-2-en-1-yl)acetamide]
11 | 30 nM | CC(C)(C)OC(=O)N[C@H]1CCCCCCCCC[C@@H](C(=O)C(N)=O)NC(=O)[C@@H]2[C@@H]3[C@H](CN2C1=O)C3(C)C [tert-butyl N-[(3S,13S,16S,17R,19S)-13-(carbamoylcarbonyl)-18,18-dimethyl-2,15-dioxo-1,14-diazatricyclo[14.4.0.0^{17,19}]icosan-3-yl]carbamate]
12 | 5 nM | CN(C)C(=O)[C@@H](NC(=O)CNC(=O)C(=O)[C@@H]1CCCC/C=C/CCCC[C@H](NC(=O)OC(C)(C)C)C(=O)N2C[C@H]3[C@@H]([C@H]2C(=O)N1)C3(C)C)c1ccccc1 [tert-butyl N-[(3S,8E,14S,17S,18R,20S)-14-{[({[(S)-(dimethylcarbamoyl)(phenyl)methyl]carbamoyl}methyl)carbamoyl]carbonyl}-19,19-dimethyl-2,16-dioxo-1,15-diazatricyclo[15.4.0.0^{18,20}]henicos-8-en-3-yl]carbamate]
13 | 11 nM | CC(C)[C@H](NC(=O)N[C@H]1CCCCCCCCC[C@@H](C(=O)C(N)=O)NC(=O)[C@@H]2[C@@H]3[C@H](CN2C1=O)C3(C)C)C(=O)C1CC1 [2-[(3S,13S,16S,17R,19S)-3-({[(2S)-1-cyclopropyl-3-methyl-1-oxobutan-2-yl]carbamoyl}amino)-18,18-dimethyl-2,15-dioxo-1,14-diazatricyclo[14.4.0.0^{17,19}]icosan-13-yl]-2-oxoacetamide]
14 | 59 nM | CC(C)(C)NC(=O)N[C@H]1CCCCCCCCCC[C@@H](C(=O)C(N)=O)NC(=O)[C@@H]2[C@@H]3[C@H](CN2C1=O)C3(C)C [2-[(3S,14S,17S,18R,20S)-3-[(tert-butylcarbamoyl)amino]-19,19-dimethyl-2,16-dioxo-1,15-diazatricyclo[15.4.0.0^{18,20}]henicosan-14-yl]-2-oxoacetamide]
